# Measurements from paper PMC12505902, “Inhibitors of trehalose-6-phosphate synthase activity in fungal pathogens compromise thermal tolerance pathways” (mBio, 2025).
# Read-outs that look alike come from different tables or passages of the source.
# System: C. albicans (SC5314)
# Experiment: MIC dose-response assay in YPD
# Assay type: cell-based
# Experimental: We tested the effects of 4456dh on live cells by determining the minimal inhibitory concentration causing 80% growth reduction (MIC80). […] The MIC80 increased at 30°C to greater than 13 mM (Fig. S7A).
# Fig 4 4456dh inhibits the growth of Candida and Cryptococcus species. […] 4456dh was administered at the concentrations indicated. Cultures were grown in YPD at the listed temperatures for 48 hours for Candida species and 72 hours for Cryptococcus species. Experimental temperatures reflect the temperatures at which the fungi experience heat stress. Left: relative growth of treated samples was calculated by averaging technical triplicates and normalizing the OD600 of each treated well to the average OD600 of the untreated WT controls, after the absorbance due to the compound was subtracted. The MIC80 values, calculated based on the OD600 values, are indicated in the white text on each heat map. Right: representative spot assays show the ability of cells to grow after exposure to 4456dh and indicate fungicidal activity of 4456dh. […]
# 102 determined by identifying the inflection point of the derivative data.
# 103 Tps1 Enzyme Activity Assay
# 104 The catalytic activity of C. albicans Tps1 and C. neoformans Tps1 was measured via a continuous
# 105 enzyme- coupled assay as previously reported ( 4) . […]
# 110 bottomed 96-well microtiter plates and the decrease in absorbance at 340 nm during the initial
# 111 reaction rate was recorded using a plate reader (Tecan). The decrease in absorbance was
# 112 analyzed for the first 200s of the kinetic reaction. […]
# 116 the overnight cultures was quantified by measuring the OD600 and corrected for the background
# 117 absorbance of the medium. Antifungal potency for 4456dh was assessed by minimum inhibitory […]
# 124 technical replicates. Growth, as determined by a reading of absorbance at 600 nm, was
# 125 normalized to untreated controls and was corrected for the absorbance of 4456dh in the YPD […]
# 129 overnight cultures was quantified by measuring the OD600 and corrected for the background
# 130 absorbance of the medium. Antifungal potency for 4456dh was assessed by minimum inhibitory […]
smiles,measurement,setting,value
Cn1cc(-c2csc(NC(=O)Cc3ccccn3)n2)cn1 [Compound 4456dh],MIC80,"30°C, YPD",no MIC was detected
same,MIC80,"Candida albicans, SC5314, 42°C, YPD, 48 hours, read-out: MIC80",13 mM
same,MIC80,"Candida albicans, SC5314, Supplemental Table 5, This publication, read-out: MIC80",5160 µg/mL
